A value given as a limit tells only on which side of the number the result lay.

The test has as its target DNA-PK (Homo sapiens, UniProt P78527). The test is described as follows: DNA-PK inhibition assay (radiometric 33P-ATP kinase assay). The test is classed as biochemical. To be noted: 100 μM ATP; competitive tight-binding fit. Here is the method:
Compounds were screened for their ability to inhibit DNA-PK kinase using a standard radiometric assay. Briefly, in this kinase assay the transfer of the terminal ^33P-phosphate in ^33P-ATP to a peptide substrate is interrogated. The assay was carried out in 384-well plates to a final volume of 50 μL per well containing approximately 6 nM DNA-PK, 50 mM HEPES (pH 7.5), 10 mM MgCl2, 25 mM NaCl, 0.01% BSA, 1 mM DTT, 10 μg/mL sheared double-stranded DNA (obtained from Sigma), 0.8 mg/mL DNA-PK peptide ([…] obtained from American Peptide), and 100 μM ATP. Accordingly, compounds of the invention were dissolved in DMSO to make 10 mM initial stock solutions. Serial dilutions in DMSO were then made to obtain the final solutions for the assay. A 0.75 μL aliquot of DMSO or inhibitor in DMSO was added to each well, followed by the addition of ATP substrate solution containing ^33P-ATP (obtained from Perkin Elmer). The reaction was started by the addition of DNA-PK, peptide and ds-DNA. After 45 min. the reaction was quenched with 25 μL of 5% phosphoric acid. The reaction mixture was transferred to MultiScreen HTS 384-well PH plates (obtained from Millipore), allowed to bind for one hour, and washed three times with 1% phosphoric acid. Following the addition of 50 μL of Ultima Gold™ high efficiency scintillant (obtained from Perkin Elmer), the samples were counted in a Packard TopCount NXT Microplate Scintillation and Luminescence Counter (Packard BioScience). The Ki values were calculated using Microsoft Excel Solver macros to fit the data to the kinetic model for competitive tight-binding inhibition.
Broadly, the Ki is the dissociation constant of the complex between target and ligand, obtained from inhibition or displacement. For the compound `COc1ccccc1[C@H](C)CNc1cc(-c2ccc(NCC(O)CO)nc2)ncn1` (single isomer, unassigned) [Compound 200], the Ki was under 30 nM. The result for `COc1ccccc1[C@H](C)CNc1cc(-c2ccnc(N[C@@H](C)CO)c2)ncn1` (single isomer, unassigned) [Compound 213] reads under 30 nM; that for `CNC(=O)c1ccc([C@H](C)CNc2cc(-c3ccc(NC(C)COC)nc3)ncn2)c(OC)c1` (single isomer, unassigned) [Compound 394], under 30 nM. `Cc1ccc(-c2cc(NC[C@@H](C)c3ccnc4c3OCCO4)ncn2)cn1` (single isomer, unassigned) [Compound 443] yielded an inhibitory constant (Ki) of under 30 nM. Then `CNC(=O)c1ccnc2c([C@H](C)CNc3cc(-c4cnc5c(c4)C(C)OC5)ncn3)cccc12` (single isomer, unassigned) [Compound 1012], with under 30 nM; and `CNC(=O)c1ccnc2c([C@H](C)CNc3cc(-c4ccnc(C(C)OC)c4)ncn3)cccc12` (single isomer, unassigned) [Compound 1039], with under 30 nM; and `COc1ccc(CCNc2cc(-c3ccc4ncccc4c3)ncn2)c(OC)c1` [Compound 28], with under 30 nM. In the case of `COc1ccccc1[C@H](C)CNc1cc(-c2cnc3[nH]ncc3c2)ncn1` [Compound 150], the Ki was under 30 nM. `Cc1ccc(-c2cc(NCC(C)c3cncc4c3OCC4)ncn2)cn1` (stereo not drawn) [Compound 418]: the Ki is under 30 nM.

For the compound `CNC(=O)c1ccnc2c([C@H](C)CNc3cc(-c4cnc(OC5CCN(C(=O)OC(C)(C)C)C5)nc4)ncn3)cccc12` (stereo partly drawn) [Compound 746], the Ki was under 30 nM. Regarding `CNC(=O)c1ccnc2c([C@H](C)CNc3cc(-c4cnc(OCC(F)(F)F)nc4)ncn3)cccc12` [Compound 769], the inhibitory constant (Ki) is under 30 nM. `CNC(=O)c1ccnc2c([C@H](C)CNc3cc(-c4cnc(N5CCN(CC(F)(F)F)CC5)nc4)ncn3)cccc12` [Compound 781] yielded a Ki of under 30 nM. Then `CNC(=O)c1ccnc2c([C@H](C)CNc3cc(-c4cc(C)nc(C)c4)ncn3)cccc12` [Compound 820], with under 30 nM; and `CNC(=O)c1c(F)cnc2c([C@H](C)CNc3cc(-c4cnc(C(C)C)nc4)ncn3)cccc12` [Compound 859], with under 30 nM. Then `CNC(=O)c1ccnc2c([C@H](C)CNc3cc(-c4cnc(OC)c(CO)c4)ncn3)ccc(F)c12` [Compound 883], with under 30 nM; and `CCN(CC)c1cc(-c2cc(NC[C@@H](C)c3cccc4c(C(=O)NC)ccnc34)ncn2)ccn1` [Compound 892], with under 30 nM. `CNC(=O)c1cc(C(F)(F)F)nc2c([C@H](C)CNc3cc(-c4ccc(C)nc4)ncn3)cccc12` [Compound 985] registered a Ki of under 30 nM. Turning to `CNC(=O)c1ccnc2c([C@H](C)CNc3cc(-c4cnc5c(c4)COC5(C)C)ncn3)cccc12` [Compound 986], the Ki is under 30 nM. With `CNC(=O)c1c(F)cnc2c([C@H](C)CNc3cc(-c4cnc5c(c4)COC5(C)C)ncn3)cccc12` [Compound 987], the inhibitory constant (Ki) is under 30 nM.

As for `CNC(=O)c1ccnc2c([C@H](C)CNc3cc(-c4ccc(CC5CCN(C)CC5)nc4)ncn3)cccc12` [Compound 989], the Ki was under 30 nM. For the compound `CNC(=O)c1c(F)cnc2c([C@H](C)CNc3cc(-c4ccc(CC5CCN(C)CC5)nc4)ncn3)cccc12` [Compound 991], the Ki was under 30 nM. On to `CNC(=O)c1ccnc2c([C@H](C)CNc3cc(-c4ccc(CC5CCN(C)CC5)nc4)ncn3)ccc(F)c12` [Compound 992], for which the inhibition constant Ki was under 30 nM. `Cc1ccc(-c2cc(NC[C@@H](C)c3cccc4c3ncc3[nH][nH]c(=O)c34)ncn2)cn1` [Compound 993]: the inhibition constant (Ki) is under 30 nM.

Turning to `Cc1ccc(-c2cc(NC[C@@H](C)c3cccc4c3ncc3[nH]n(C)c(=O)c34)ncn2)cn1` [Compound 994], the Ki is under 30 nM.

As to `Cc1ccc(-c2cc(NC[C@@H](C)c3cccc4c3ncc3c4c(=O)[nH]n3C)ncn2)cn1` [Compound 995], the inhibition constant Ki is under 30 nM. Compound `CNC(=O)c1ccnc2c([C@H](C)CNc3cc(-c4cnc(OC(C)(C)C)nc4)ncn3)cccc12` [Compound 996] had a Ki of under 30 nM. As for `CNC(=O)c1c(F)cnc2c([C@H](C)CNc3cc(-c4cnc(OC(C)(C)C)nc4)ncn3)cccc12` [Compound 997], the inhibitory constant (Ki) was under 30 nM.

In turn, `CNC(=O)c1ccnc2c([C@H](C)CNc3cc(-c4cnc(OC(C)(C)C)nc4)ncn3)ccc(F)c12` [Compound 998] showed an inhibition constant (Ki) of under 30 nM. Consider `CNC(=O)c1c(F)cnc2c([C@H](C)CNc3cc(-c4cnc(COC)nc4)ncn3)cccc12` [Compound 999], for which the Ki was under 30 nM. Turning to `CNC(=O)c1ccnc2c([C@H](C)CNc3cc(-c4cnc(COC)nc4)ncn3)ccc(F)c12` [Compound 1000], the Ki is under 30 nM. `CNC(=O)c1ccnc2c([C@H](C)CNc3cc(-c4cnc(CC5CCN(C)CC5)nc4)ncn3)cccc12` [Compound 1001] showed an inhibition constant Ki of under 30 nM.

In turn, `CNC(=O)c1c(F)cnc2c([C@H](C)CNc3cc(-c4cnc(CC5CCN(C)CC5)nc4)ncn3)cccc12` [Compound 1002] came in with a Ki of under 30 nM. The result for `[2H]C([2H])([2H])C([2H])([2H])c1ncc(-c2cc(NC[C@@H](C)c3cccc4c(C(=O)NC)c(F)cnc34)ncn2)cn1` [Compound 1004] reads under 30 nM; that for `CNC(=O)c1ncnc2c([C@H](C)CNc3cc(-c4ccc(OC)nc4)ncn3)cccc12` [Compound 1005], under 30 nM.

`CNC(=O)c1ncnc2c([C@H](C)CNc3cc(-c4ccc(F)nc4)ncn3)cccc12` [Compound 1006]: the inhibition constant Ki is under 30 nM. As to `CNC(=O)c1ccnc2c([C@H](C)CNc3cc(-c4ccc(CC5CCN(C(C)=O)CC5)nc4)ncn3)cccc12` [Compound 1007], the Ki was under 30 nM.

Turning to `CNC(=O)c1c(F)cnc2c([C@H](C)CNc3cc(-c4ccc(CC5CCN(C(C)=O)CC5)nc4)ncn3)cccc12` [Compound 1008], the Ki was under 30 nM. `CNC(=O)c1ncnc2c([C@H](C)CNc3cc(-c4cnc(OC)nc4)ncn3)cccc12` [Compound 1009]: the Ki was under 30 nM. Then `CNC(=O)c1ncnc2c([C@H](C)CNc3cc(-c4ccc(C#N)cc4)ncn3)cccc12` [Compound 1010], with under 30 nM; and `CCOc1ncc(-c2cc(NC[C@@H](C)c3cccc4c(C(=O)NC)ncnc34)ncn2)cn1` [Compound 1011], with under 30 nM; and `CNC(=O)c1ccnc2c([C@H](C)CNc3cc(-c4cnc(COC(C)C)nc4)ncn3)cccc12` [Compound 1014], with under 30 nM.

`CNC(=O)c1c(F)cnc2c([C@H](C)CNc3cc(-c4cnc(COC(C)C)nc4)ncn3)cccc12` [Compound 1015] came in with a Ki of under 30 nM.

`CNC(=O)c1ncnc2c([C@H](C)CNc3cc(-c4ccc(C(=O)NCCC#N)nc4)ncn3)cccc12` [Compound 1016] showed a Ki of under 30 nM. The result for `CNC(=O)c1ncnc2c([C@H](C)CNc3cc(-c4ccc(C(=O)NCCC#N)cc4)ncn3)cccc12` [Compound 1017] reads under 30 nM. In turn, `CNC(=O)c1ccnc2c([C@H](C)CNc3cc(-c4ccc(CC5CCN(C(C)=O)CC5)nc4)ncn3)ccc(F)c12` [Compound 1018] showed an inhibitory constant (Ki) of under 30 nM. Compound `CNC(=O)c1ccnc2c([C@H](C)CNc3cc(-c4ccc(CC5CCN(CC(F)F)CC5)nc4)ncn3)cccc12` [Compound 1019] showed an inhibitory constant (Ki) of under 30 nM. In the case of `CNC(=O)c1ccnc2c([C@H](C)CNc3cc(-c4ccc(CC5CCN(CC(F)F)CC5)nc4)ncn3)ccc(F)c12` [Compound 1020], the Ki was under 30 nM. Then `CNC(=O)c1c(F)cnc2c([C@H](C)CNc3cc(-c4ccc(CC5CCN(CC(F)(F)F)CC5)nc4)ncn3)cccc12` [Compound 1021], with under 30 nM; and `CNC(=O)c1ccnc2c([C@H](C)CNc3cc(-c4ccc(CC5CCN(CC(F)(F)F)CC5)nc4)ncn3)ccc(F)c12` [Compound 1022], with under 30 nM. For the compound `CNC(=O)c1ccnc2c([C@H](C)CNc3cc(-c4ccc(CC5CCN(CC(F)(F)F)CC5)nc4)ncn3)cccc12` [Compound 1023], the Ki was under 30 nM. `[2H]c1nc(C)nc([2H])c1-c1cc(NC[C@@H](C)c2cccc3c(C(N)=O)ccnc23)ncn1` [Compound 1027] returned an inhibitory constant (Ki) of under 30 nM. `CNC(=O)c1ccnc2c([C@H](C)CNc3cc(-c4cnc(NC5CC5)nc4)ncn3)ccc(F)c12` [Compound 1028] returned an inhibitory constant (Ki) of under 30 nM.

With `CNC(=O)c1ccnc2c([C@H](C)CNc3cc(-c4cnc(NC5CC5)nc4)ncn3)cccc12` [Compound 1029], the Ki is under 30 nM. In turn, `CCOc1ncc(-c2cc(NC[C@@H](C)c3cccc4c(C(=O)NC)c(F)cnc34)ncn2)cn1` [Compound 1030] gave an inhibitory constant (Ki) of under 30 nM. In the case of `CNC(=O)c1ccnc2c([C@H](C)CNc3cc(-c4cnc(OC)nc4)ncn3)ccc(F)c12` [Compound 1031], the inhibitory constant (Ki) is under 30 nM. On to `CNC(=O)c1c(F)cnc2c([C@H](C)CNc3cc(-c4cnc(NC5CC5)nc4)ncn3)cccc12` [Compound 1032], for which the Ki is under 30 nM. Then `CNC(=O)c1c(F)cnc2c([C@H](C)CNc3cc(-c4cnc(NCC(F)(F)F)nc4)ncn3)cccc12` [Compound 1033], with under 30 nM.

(Values after patent US10442791B2, “DNA-PK inhibitors” (Vertex Pharmaceuticals Incorporated, priority 2012, dated 2019).)
